Laboratory results taken from publication PMC8480901 (PLoS ONE, 2021).
Several values for one entry are separate records, joined by “and”; a condition that tells them apart may be missing. Identical values can stand only once.

Test system: J774.2 mouse macrophages
Experiment: LPS-induced cytokine and chemokine levels in J774.2 mouse macrophage cell supernatant (ELISA)
Assay type: cell-based
Settings: for CXCL1 % reduction / CXCL1 [pg/mL] Mean / CXCL2 % reduction / CXCL2 [pg/mL] Mean / MMP9 % reduction / MMP9 [pg/mL] Mean: J774.2 cells; for CXCL1 % reduction / CXCL1 [pg/mL] Mean / CXCL2 % reduction / CXCL2 [pg/mL] Mean / MMP9 % reduction / MMP9 [pg/mL] Mean / CCl2, % reduction / CCl2, Mean / GM-CSF % reduction / GM-CSF Mean / IL-1β % reduction / IL-1β Mean / IL-6 % reduction / IL-6 Mean / TNF-α % reduction / TNF-α Mean / CCl2 / CXCL1 / GM-CSF / IL-1β / IL-6 / TNF-α: LPS; for CCl2, % reduction / CCl2, Mean / GM-CSF % reduction / GM-CSF Mean / IL-1β % reduction / IL-1β Mean / IL-6 % reduction / IL-6 Mean / TNF-α % reduction / TNF-α Mean / CCl2 / CXCL1 / GM-CSF / IL-1β / IL-6 / TNF-α: J774.2 supernatant; for CCl2 / CXCL1 / GM-CSF / IL-1β / IL-6 / TNF-α: individual replicate

In the case of C=C[C@]1(C)C[C@@H](OC(=O)CS[C@@H]2CC[C@@H](N)C[C@H]2O)[C@]2(C)[C@H](C)CC[C@]3(CCC(=O)[C@H]32)[C@@H](C)[C@@H]1O [Lefamulin], the CXCL1 % reduction (compound 0.03 µM) is reported as -4.29%, the “CXCL1 [pg/mL] Mean” value (compound 0.03 µM) is reported as 27 pg/mL and the CXCL2 % reduction (compound 0.03 µM) is reported as 3%. For the same molecule, the “CXCL2 [pg/mL] Mean” value (compound 0.03 µM) was 31653 pg/mL, the MMP9 % reduction (compound 0.03 µM) was 2.7% and the “MMP9 [pg/mL] Mean” value (compound 0.03 µM) was 939 pg/mL. For the same molecule, the CXCL1 % reduction (compound 0.1 µM) was 0.477%, the “CXCL1 [pg/mL] Mean” value (compound 0.1 µM) was 25 pg/mL and the CXCL2 % reduction (compound 0.1 µM) was 7%. The “CXCL2 [pg/mL] Mean” value (compound 0.1 µM) was 30382 pg/mL, the MMP9 % reduction (compound 0.1 µM) was 16% and the “MMP9 [pg/mL] Mean” value (compound 0.1 µM) was 819 pg/mL. For the same molecule, the CXCL1 % reduction (compound 0.3 µM) was -4.29%, the “CXCL1 [pg/mL] Mean” value (compound 0.3 µM) was 27 pg/mL and the CXCL2 % reduction (compound 0.3 µM) was 0.626%. The “CXCL2 [pg/mL] Mean” value (compound 0.3 µM) was 32419 pg/mL, the MMP9 % reduction (compound 0.3 µM) was 14% and the “MMP9 [pg/mL] Mean” value (compound 0.3 µM) was 840 pg/mL. For the same molecule, the CXCL1 % reduction (compound 1 µM) was -0.703%, the “CXCL1 [pg/mL] Mean” value (compound 1 µM) was 26 pg/mL and the CXCL2 % reduction (compound 1 µM) was -10%. The “CXCL2 [pg/mL] Mean” value (compound 1 µM) was 35898 pg/mL, the MMP9 % reduction (compound 1 µM) was 2.38% and the “MMP9 [pg/mL] Mean” value (compound 1 µM) was 942 pg/mL. The CXCL1 % reduction (compound 3 µM) was -7.61%, the “CXCL1 [pg/mL] Mean” value (compound 3 µM) was 28 pg/mL and the CXCL2 % reduction (compound 3 µM) was -7%. The “CXCL2 [pg/mL] Mean” value (compound 3 µM) was 34917 pg/mL, the MMP9 % reduction (compound 3 µM) was 7% and the “MMP9 [pg/mL] Mean” value (compound 3 µM) was 900 pg/mL. For the same molecule, the CXCL1 % reduction (compound 10 µM) was -36%, the “CXCL1 [pg/mL] Mean” value (compound 10 µM) was 35 pg/mL and the CXCL2 % reduction (compound 10 µM) was -7%. The “CXCL2 [pg/mL] Mean” value (compound 10 µM) was 34821 pg/mL, the MMP9 % reduction (compound 10 µM) was 14% and the “MMP9 [pg/mL] Mean” value (compound 10 µM) was 838 pg/mL. For the same molecule, the CXCL1 % reduction (compound 30 µM) was -238%, the “CXCL1 [pg/mL] Mean” value (compound 30 µM) was 87 pg/mL and the CXCL2 % reduction (compound 30 µM) was -16%. The “CXCL2 [pg/mL] Mean” value (compound 30 µM) was 37862 pg/mL, the MMP9 % reduction (compound 30 µM) was 60% and the “MMP9 [pg/mL] Mean” value (compound 30 µM) was 423 pg/mL. The CXCL1 % reduction (compound 100 µM) was -827%, the “CXCL1 [pg/mL] Mean” value (compound 100 µM) was 237 pg/mL and the CXCL2 % reduction (compound 100 µM) was -16%. For the same molecule, the “CXCL2 [pg/mL] Mean” value (compound 100 µM) was 37744 pg/mL, the MMP9 % reduction (compound 100 µM) was 96% and the “MMP9 [pg/mL] Mean” value (compound 100 µM) was 91 pg/mL. The “IL-6 and IL-1β levels in supernatant” value (J774.2 macrophages) was “trend toward reduction”, the “levels of the measured LPS-induced cytokines, chemokines, or MMP-9 in supernatants” value (J774.2 mouse macrophages, concentrations tested (0.03 to 10 μM shown)) was “little to no reduction” and the CCl2, % reduction (0.03 µM) was 1.79%. The “CCl2, Mean” value (0.03 µM) was 35400 pg/mL, the GM-CSF % reduction (0.03 µM) was 52% and the “GM-CSF Mean” value (0.03 µM) was 672 pg/mL. For the same molecule, the IL-1β % reduction (0.03 µM) was -26%, the “IL-1β Mean” value (0.03 µM) was 241 pg/mL and the IL-6 % reduction (0.03 µM) was -14%. For the same molecule, the “IL-6 Mean” value (0.03 µM) was 88112 pg/mL, the TNF-α % reduction (0.03 µM) was -16% and the “TNF-α Mean” value (0.03 µM) was 1587 pg/mL. For the same molecule, the CCl2 (0.03 µM) was 33453 pg/mL and 37346.9 pg/mL, the CXCL1 (0.03 µM) was 25.7 pg/mL and 27.7 pg/mL and the GM-CSF (0.03 µM) was 625.6 pg/mL and 719.3 pg/mL. For the same molecule, the IL-1β (0.03 µM) was 233.691 pg/mL and 247.723 pg/mL, the IL-6 (0.03 µM) was 83483 pg/mL and 92741 pg/mL and the TNF-α (0.03 µM) was 1586.9 pg/mL and 1587.5 pg/mL. For the same molecule, the CCl2, % reduction (0.1 µM) was 8%, the “CCl2, Mean” value (0.1 µM) was 33260 pg/mL and the GM-CSF % reduction (0.1 µM) was 50%. The “GM-CSF Mean” value (0.1 µM) was 691 pg/mL, the IL-1β % reduction (0.1 µM) was -10% and the “IL-1β Mean” value (0.1 µM) was 209 pg/mL. The IL-6 % reduction (0.1 µM) was -11%, the “IL-6 Mean” value (0.1 µM) was 85917 pg/mL and the TNF-α % reduction (0.1 µM) was -16%. The “TNF-α Mean” value (0.1 µM) was 1579 pg/mL, the CCl2 (0.1 µM) was 30882.1 pg/mL and 35637.1 pg/mL and the CXCL1 (0.1 µM) was 26.3 pg/mL and 24.7 pg/mL. The GM-CSF (0.1 µM) was 718.9 pg/mL and 663.8 pg/mL, the IL-1β (0.1 µM) was 208.032 pg/mL and 210.141 pg/mL and the IL-6 (0.1 µM) was 86925 pg/mL and 84909 pg/mL. The TNF-α (0.1 µM) was 1571.9 pg/mL and 1586.9 pg/mL, the CCl2, % reduction (0.3 µM) was 0.431% and the “CCl2, Mean” value (0.3 µM) was 35870 pg/mL. The GM-CSF % reduction (0.3 µM) was 54%, the “GM-CSF Mean” value (0.3 µM) was 647 pg/mL and the IL-1β % reduction (0.3 µM) was -6%. For the same molecule, the “IL-1β Mean” value (0.3 µM) was 202 pg/mL, the IL-6 % reduction (0.3 µM) was -13% and the “IL-6 Mean” value (0.3 µM) was 87246 pg/mL. For the same molecule, the TNF-α % reduction (0.3 µM) was -8.54%, the “TNF-α Mean” value (0.3 µM) was 1483 pg/mL and the CCl2 (0.3 µM) was 32973.5 pg/mL and 38766.3 pg/mL. For the same molecule, the CXCL1 (0.3 µM) was 24.9 pg/mL and 28.5 pg/mL, the GM-CSF (0.3 µM) was 644.4 pg/mL and 648.8 pg/mL and the IL-1β (0.3 µM) was 202.166 pg/mL and 201.189 pg/mL. For the same molecule, the IL-6 (0.3 µM) was 86199 pg/mL and 88294 pg/mL.
